Source: US20120190752A1, “EXO-S-MECAMYLAMINE METHOD, USE, AND COMPOUND FOR TREATMENT” (Targacept Inc., priority 2009, published 2012)

Test system: subjects with major depressive disorder (MDD) who were inadequate responders to citalopram
Assay: HAMD Anxiety/Somatization Factor, Phase 2b add-on trial
Format: in vivo, human
Protocol: In more detail, a multi-center double-blind, randomized, placebo-controlled, parallel group, flexible dose titration study of TC-5214 as adjunctive therapy in subjects with major depressive disorder (MDD) who were inadequate responders to citalopram was conducted in centers in the US and India. The study consisted of a screening period, baseline/washout period, open-label phase, double-blind phase, and a follow-up visit. Subject participation in the study could continue for up to 16 weeks of treatment. Following a washout period of up to 28 days for other antidepressants, subjects with MDD and a MADRS total score >/=28 and a Clinical Global Impression-Severity (CGI-S) score >/=4 were enrolled on Day 1 into an open-label citalopram-only phase of the study. This phase lasted 8 weeks, with citalopram (CIT) dose increased from a once-daily dose of 20 mg (Day 1 through Week 4) to 40 mg (Week 4 through Week 8). A total of 579 subjects entered the open-label citalopram phase. At Week 8, subjects who tolerated 40 mg CIT, but whose MADRS score was reduced <50% from baseline and no lower than 17, and CGI-S≧4, were considered inadequate responders. These subjects (n=270) were randomized in a double-blind fashion to receive either placebo or TC-5214-23 as add-on therapy to continued CIT. The double-blind phase of the study also lasted 8 weeks (Week 8 to Week 16). Study drug, TC-5214-23 or placebo, was started at 2 mg daily (1 mg twice per day [BID] dosing), added on to continuing CIT (40 mg PO qd). After 2 weeks of treatment, the dose of TC-5214 could be increased to 4 mg (2 mg BID) or continued unchanged, with up-titration based upon good tolerability and inadequate therapeutic response. After a further 2 weeks, the dose of TC-5214 could be increased again to 8 mg (4 mg BID) if judged appropriate by the investigator, based upon good tolerability and inadequate therapeutic response. At any time during the double-blind phase of the study, placebo or TC-5214-23 could be reduced to the previous dose level following the emergence of unacceptable adverse events (AEs). […] At this follow-up, any signs or symptoms of relapse were evaluated. If a subject was prematurely discontinued from the study between Week 8 and Week 16 for any reason, the investigator was to make every effort to perform all evaluations as per protocol, assuming the subject had reached the end of the double-blind add-on treatment phase. These evaluations were to be made as soon as possible and within 2 weeks of discontinuation. […] There was no meaningful difference in results as a function of age, gender, site, or smoking status. With regard to efficacy endpoints, the following tables present efficacy used in the ITT (Intent-to-Treat) and PP (Per Protocol) populations unless otherwise specific. The primary inference was based upon Week 16 visit using the ITT population. Change from baseline was obtained by subtracting the baseline values from the individual on-treatment values. Change from Week 16 was obtained by subtracting the Week 16 values from the individual follow-up visit (Week 18/19) values. If either the baseline or Week 16 or on-treatment or follow-up value was missing, the change from baseline or Week 16 value was also set to missing. To account for missing data, the last observation carry forward (LOCF) method was used for the ITT and PP populations. Thus, the last available on-therapy observation for a subject, including the observation at premature discontinuation, was used to estimate subsequent missing data points. For efficacy, baseline data were collected at Week 8 in the double-blind augmentation phase electronic case report form pages. Analysis for the secondary endpoints were performed on both the ITT and PP populations. The secondary endpoints were as follows in Table 5. [table]

[1] = ITT, Double Blind Week 16 LOCF (change from Week 8)
[2] = ITT, Double Blind Week 18 LOCF (Follow-up), change from Week 16
[3] = PP, Double Blind Week 16 LOCF (change from Week 8)
[4] = PP, Double Blind Week 18 LOCF (Follow-up), change from Week 16

Structure (SMILES): CNC1(C)C2CCC(C2)C1(C)C (stereo in doubt) [TC-5214, (S)—N,2,3,3-tetramethylnorbornan-2-amine]
- HAMD anxiety/somatization subscale score change from baseline compared with placebo (ITT and PP populations, result in words): statistically significant decreases (improvements)
- HAMD anxiety/somatization Mean Difference between TC-5214 and Placebo [1]: 1.93
- HAMD anxiety/somatization subscale Adjusted Mean change [1]: −4.58
- HAMD anxiety/somatization Mean Difference between TC-5214 and Placebo [2]: −0.00
- HAMD anxiety/somatization subscale Adjusted Mean change [2]: −0.14
- HAMD anxiety/somatization Mean Difference between TC-5214 and Placebo [3]: 1.92
- HAMD anxiety/somatization subscale Adjusted Mean change [3]: −4.93
- HAMD anxiety/somatization Mean Difference between TC-5214 and Placebo [4]: 0.01
- HAMD anxiety/somatization subscale Adjusted Mean change [4]: −0.16
